Numbered stars: 1 amine (or outer) side, 2 acyl side, 3 side chain; on linkers, the order of the positions; unused ones are H or OH. Bridge positions count the residues as written; N and C are the ends. Square brackets hold non-standard residues; d marks the D form. Peptide text beside a SMILES is read from it. * marks the point of attachment. Ala(piperidin-4-yl) = O=C([C@H](CC1CCN([*:3])CC1)N[*:1])[*:2]; DOTA = O=C(O)CN1CCN(CC(=O)O)CCN(CC(=O)*)CCN(CC(=O)O)CC1; Trp(5-F) = N[C@@H](Cc1c[nH]c2ccc(F)cc12)C(=O)O; Trp(7-aza) = N[C@@H](Cc1c[nH]c2ncccc12)C(=O)O; Pro(trans-4-F) = O=C(O)[C@@H]1C[C@@H](F)CN1; 2Nal = N[C@@H](Cc1ccc2ccccc2c1)C(=O)O; Cha = N[C@@H](CC1CCCCC1)C(=O)O; Lauroyl = CCCCCCCCCCCC(=O)*

The target in one data set is T1, human DLL3 (Homo sapiens, UniProt Q9NYJ7).
T1 sequence (Q9NYJ7 27-618): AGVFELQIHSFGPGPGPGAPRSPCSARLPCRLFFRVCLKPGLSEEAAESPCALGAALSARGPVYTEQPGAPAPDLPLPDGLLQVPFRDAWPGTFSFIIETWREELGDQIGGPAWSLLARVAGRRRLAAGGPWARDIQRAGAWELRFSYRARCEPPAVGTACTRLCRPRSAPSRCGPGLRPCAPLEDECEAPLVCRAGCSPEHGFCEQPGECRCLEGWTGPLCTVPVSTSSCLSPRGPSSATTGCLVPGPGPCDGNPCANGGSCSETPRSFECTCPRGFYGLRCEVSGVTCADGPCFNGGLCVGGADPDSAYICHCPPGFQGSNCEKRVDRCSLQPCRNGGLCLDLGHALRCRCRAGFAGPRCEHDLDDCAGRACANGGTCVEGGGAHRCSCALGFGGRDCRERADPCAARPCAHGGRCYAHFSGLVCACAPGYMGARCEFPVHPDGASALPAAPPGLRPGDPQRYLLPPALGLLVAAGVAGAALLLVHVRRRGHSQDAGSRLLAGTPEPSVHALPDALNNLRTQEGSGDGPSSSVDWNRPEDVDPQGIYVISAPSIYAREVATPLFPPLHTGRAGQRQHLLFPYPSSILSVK
Put plainly: Affinity determination by Surface Plasmon Resonance (SPR). It is filed as binding. The note with it: 25° C., biotinylated human DLL3 immobilized on streptavidin sensor chip, 1:1 binding model; read-out: SPR KD. In outline: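 Kinetic and affinity constants were derived by fitting sensorgrams to a 1:1 binding model. Graded compound concentrations flowed at 100 μL/minute in 20 mM phosphate running buffer with 2% DMSO over streptavidin-immobilized biotinylated human DLL3, reference-subtracted.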

Data set [1] relates to CT26.DLL3 cells. Put plainly: Cell binding (total uptake) of [177Lu]Lu-test peptide, CT26.DLL3 cells. It counts as cell-based. The conditions noted are these: 1 hour at 37° C. In a few lines: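 CT26.DLL3 cells (5–25 million/condition) in 1% PBSA incubated 1 h at 37°C with [177Lu]Lu-labelled peptide (0.8 μCi in 300 μL), radiolabelled at pH ~5, 80°C. Cells pelleted, washed twice with cold PBS+1% BSA; bound and unbound fractions gamma-counted, uptake binned as ≤25%, 25–50%, >50%.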

In data set [2] the test system is CT26.DLL3 cells. As to the kind of experiment: Internalization (out of bound fraction) of [177Lu]Lu-test peptide, CT26.DLL3 cells. It is filed as cell-based. The note with it: 1 hour at 37° C., glycine pH 2.5 wash. In a few lines: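 [177Lu]Lu-peptide (labelled at 80 °C, pH ~5, 17-20 min) incubated with 5-25 million CT26.DLL3 cells in 1% PBSA, 0.8 μCi, 1 h at 37 °C. Surface-bound activity stripped twice with 50 mM glycine pH 2.5, 3 min; NaOH-solubilized cell activity gamma-counted as internalized fraction, binned ≤25%, 25-50%, >50%.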

The test system of data set [3] is SHP-77 cells. Put plainly: Cell binding (total uptake) of [177Lu]Lu-test peptide, SHP-77 cells. It is filed as cell-based. The conditions noted are these: SHP77 cells, 1 hour at 37° C., bound fraction. Here is the method: [^177Lu]LuCl3 was received from venders in HCl solution. For every mCi of [^177Lu]LuCl3 added to the reaction vial (1.5 mL Eppendorf vial), ammonium acetate buffer (0.2 M, pH 4.9, 100 μL, containing 1% w/v ascorbic acid and 6% v/v ethanol) and peptide conjugate (1 nmol). A peptide conjugate of the present disclosure is also referred to herein as a “chelator-peptide”. The pH of the solution was determined to be approximately 5 by using pH strips. The reaction vial was incubated at 80° C., 700 RPM for 17-20 minutes. A sample from the reaction was analyzed by RP-HPLC using an Agilent Infinity II 1260 HPLC to determine reaction completion and radiochemical purity of [^177Lu]Lu-chelator-peptide. HPLC conditions: Waters XBridge BEH C18 Column, 130 Å, 3.5 um, 4.6 mm×250 mm; mobile phase: Solvent A=water (with 0.1% formic acid), solvent B=acetonitrile (with 0.1% formic acid). Gradients: 25-45% B in 10 minutes, 45-65% B in 12 minutes, 65-90% in 6 minutes at a flow rate of 0.5 mL/minute. Required amounts of the product was formulated in 1% PBSA for cell studies.
The study was conducted using SHP-77, CT26.WT, and CT26.DLL3 cells (Table 7) Adherent cell studies: The cells were cultured in appropriate culture media (20 mL) in tissue culture treated T150 flasks at 37° C. and 5% CO2. Adherent cells were detached (60-70% confluent) using 5 mL Versene at 37° C. for 3 minutes. After confirming the viability using countess and count of detached cells using Trypan blue, the cells were centrifuged at 4° C. for 5 minutes (1,000 rpm). The cell pellet obtained was washed once with PBS and resuspended in 1% PBSA to obtain the desired cell concentration (5-25 million cells/mL).
Suspension cell studies: The cells were cultured in appropriate culture media (20 mL) in tissue culture treated T150 flasks at 37° C. and 5% CO2. After confirming the viability and count of detached cells using Trypan blue, the cells were centrifuged at 4° C. for 5 minutes (1,000 rpm). The cell pellet obtained was washed once with PBS and resuspended in 1% PBSA to obtain the desired cell concentration (5-25 million cells/mL).
Cell numbers used for the assay were in the range of 5 million cells/condition −25 million cells/condition.
Total uptake: Cells were incubated with 300 μL (0.8 μCi) of the incubation buffer (containing radiolabeled peptide [^177Lu] Lu-test peptide) for 1 hour at 37° C. (Table 8). Post incubation, the cells were pelleted and washed 2 times using cold PBS+1% BSA. The supernatant and washes were combined and counted together as “unbound fraction” in a gamma counter. The cells were then resuspended in 300 μL of 1% PBS+1% BSA and counted in the gamma counter as “bound fraction”.
In these Tables, “A” represents %≤25; “B” represents 25<%≤50; “C” represents %>50.

The subject of data set [4] is SHP-77 cells. Put plainly: Internalization (out of bound fraction) of [177Lu]Lu-test peptide, SHP-77 cells. It counts as cell-based. The conditions noted are these: SHP77 cells, 1 hour at 37° C., after 50 mM Glycine pH=2.5 wash. Here is the method:
[^177Lu]LuCl3 was received from venders in HCl solution. For every mCi of [^177Lu]LuCl3 added to the reaction vial (1.5 mL Eppendorf vial), ammonium acetate buffer (0.2 M, pH 4.9, 100 μL, containing 1% w/v ascorbic acid and 6% v/v ethanol) and peptide conjugate (1 nmol). A peptide conjugate of the present disclosure is also referred to herein as a “chelator-peptide”. The pH of the solution was determined to be approximately 5 by using pH strips. The reaction vial was incubated at 80° C., 700 RPM for 17-20 minutes. A sample from the reaction was analyzed by RP-HPLC using an Agilent Infinity II 1260 HPLC to determine reaction completion and radiochemical purity of [^177Lu]Lu-chelator-peptide. […]
Total uptake: Cells were incubated with 300 μL (0.8 μCi) of the incubation buffer (containing radiolabeled peptide [^177Lu] Lu-test peptide) for 1 hour at 37° C. […] The supernatant and washes were combined and counted together as “unbound fraction” in a gamma counter. The cells were then resuspended in 300 μL of 1% PBS+1% BSA and counted in the gamma counter as “bound fraction”.
Internalization: The resuspended cells in 300 μl of 1% PBSA and counted in the gamma counter as “bound fraction” were collected in 1.5 mL Eppendorf tube and pelleted. […] This was counted in the gamma counter as “internalized fraction”. […]

In a further data set the test system is SHP-77 tumors. As to the kind of experiment: Ex vivo biodistribution of radiolabeled peptides in nude mice bearing SHP-77 tumors. The note with it: [177Lu]Lu labelling, nude mice bearing SHP-77 tumors (n = 3), 24 hours post-injection. In a few lines:
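Nude mice bearing SHP-77 xenografts (200-400 mm^3) or tumor-naïve mice (5-7 weeks) received an intravenous tail-vein bolus of [^177Lu]Lu-peptide and were euthanized at pre-set time points. Tissues were weighed and gamma-counted, with counts decay-corrected to injection time. Values are % IA/g per tissue from the injected activity of each mouse.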

For data set [5], the target named is T2, Biotinylated human DLL3 (Delta Like Canonical Notch Ligand 3) (human, UniProt Q9NYJ7 27-492, limits assumed, biotinylated (site not stated)).
T2 construct: also called Delta-like protein 3; biotinylated target ligand human DLL3
T2 sequence: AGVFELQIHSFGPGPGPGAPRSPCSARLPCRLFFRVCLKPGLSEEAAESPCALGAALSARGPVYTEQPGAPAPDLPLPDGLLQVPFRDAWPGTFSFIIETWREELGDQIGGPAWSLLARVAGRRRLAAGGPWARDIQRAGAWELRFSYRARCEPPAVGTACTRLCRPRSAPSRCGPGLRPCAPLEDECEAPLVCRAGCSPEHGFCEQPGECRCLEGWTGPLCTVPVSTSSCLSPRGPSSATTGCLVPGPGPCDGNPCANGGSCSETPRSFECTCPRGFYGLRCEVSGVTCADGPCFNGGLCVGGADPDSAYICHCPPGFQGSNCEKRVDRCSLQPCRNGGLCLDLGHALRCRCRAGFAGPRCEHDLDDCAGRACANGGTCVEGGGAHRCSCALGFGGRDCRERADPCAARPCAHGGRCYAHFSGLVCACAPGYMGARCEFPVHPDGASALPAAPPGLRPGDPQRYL
As to the kind of experiment: SPR; letter grade, key in paragraph 614. As to the method: Biotinylated target ligand human DLL3 was immobilized on a streptavidin sensor chip. A reference surface was set up for nonspecific binding and refractive index changes. For analysis of the kinetics of interactions, varying concentrations of samples were injected at a flow rate of 100 μL/minute using running buffer containing 20 mM phosphate buffer with 2.7 mM KCl, 137 mM NaCl, 0.05% Surfactant P20 and 2% DMSO. Sensorgram curves were fitted with 1:1 binding model, and affinity and kinetic parameters were obtained using Biacore Insight evaluation 4.0. software.
For orientation: In SPR one partner is held on a chip, and binding of the other changes the refractive index at the surface.

In data set [6] the target is DLL3 on CT26.DLL3 cells (Homo sapiens (Human)) (UniProt Q9NYJ7). Put plainly: 177Lu-peptide bound to CT26.DLL3 cells, gamma counting; letter grade, key in paragraph 629.

As usually defined, the Kd is a measure of binding affinity in units of concentration. Consider `CCCCCCCCCCCC(=O)NCCCC[C@@H]1NC(=O)[C@H](Cc2ccc3ccccc3c2)NC(=O)[C@H](CC(N)=O)NC(=O)[C@H](CC2CCNCC2)NC(=O)[C@@H](NC(=O)[C@@H](NC(=O)[C@@H](NC(=O)[C@H](Cc2c[nH]c3ccccc23)NC(C)=O)[C@@H](C)O)[C@@H](C)CC)CSSC[C@@H](C(=O)N[C@@H](Cc2c[nH]c3ccccc23)C(=O)N2CCC[C@H]2C(=O)N[C@H](CCCCNC(=O)CN2CCN(CC(=O)O)CCN(CC(=O)O)CCN(CC(=O)O)CC2)C(N)=O)NC(=O)[C@H](CC(=O)O)NC1=O` [compound 326, Ac-W-T-I-C(3)-[3-(4-piperidinyl)-Ala]-N-(2Nal)-K(C12)-D-C(3)-W-P-[D-Lys(DOTA)]-NH2] (Ac-WTIC[Ala(piperidin-4-yl)]N[2Nal]K(Lauroyl)DCWP[dK](DOTA)-NH2; disulfide 4-10), for which the dissociation constant (Kd) at human DLL3 fell in the range of 1 to 10 nM. Moreover, the “% Binding” value with CT26.DLL3 cells [1] and in the data set on SHP-77 cells [3] was “A (%≤25)” in each case. The entries for the “% Internalization (out of bound fraction)” value in the data set with CT26.DLL3 cells [2] and in the data set with SHP-77 cells [4] were “C (%>50)” and “B (25<%≤50)”, respectively. Besides, in the data set with SHP-77 tumors (kidney), the “kidney uptake (% IA/g)” value is given as “C (0 < % IA/g ≤ 10 in kidney)”. Also, the “tumor uptake (% IA/g)” value in the data set with SHP-77 tumors (tumor) is “A (0 < % IA/g ≤ 5 in tumor)”.

B1: Cpd No. 451 (peptide)
peptide: Ac-WTICKN[2Nal]HDCWP[dK](DOTA)-NH2
modifications: disulfide 4-10
SMILES: CC[C@H](C)[C@H](NC(=O)[C@@H](NC(=O)[C@H](Cc1c[nH]c2ccccc12)NC(C)=O)[C@@H](C)O)C(=O)N[C@H]1CSSC[C@@H](C(=O)N[C@@H](Cc2c[nH]c3ccccc23)C(=O)N2CCC[C@H]2C(=O)N[C@H](CCCCNC(=O)CN2CCN(CC(=O)O)CCN(CC(=O)O)CCN(CC(=O)O)CC2)C(N)=O)NC(=O)[C@H](CC(=O)O)NC(=O)[C@H](Cc2c[nH]cn2)NC(=O)[C@H](Cc2ccc3ccccc3c2)NC(=O)[C@H](CC(N)=O)NC(=O)[C@H](CCCCN)NC1=O
Take B1: in data set [5], the Kd was at most 1 nM.

On to Ac-[Trp(5-F)]T[Cha]CNN[2Nal]HDC[Trp(7-aza)][Pro(trans-4-F)][dK](DOTA)-NH2 (disulfide 4-10; also: 177Lu complexed in the DOTA chelator) [[177Lu]Lu-labelled Cpd No. 245], for which the % Binding in data set [6] was under 25%.
